Reference: ChEMBL document CHEMBL1268971, “4,5-Dihydro-1H-pyrazolo[4,3-h]quinazolines as potent and selective Polo-like kinase 1 (PLK1) inhibitors” (Bioorg Med Chem Lett, 2010)
Values after ≈ are worked out from the molar mass of the structure shown. Active and inactive are the calls of the source. No cut-off for these calls is given here.

How the values were obtained:
[1] = tested on: A2780; assay: Induction of cell cycle arrest in human A2780 cells assessed as accumulation at G2/M phase at 0.005 to 0.5 uM after 24 hrs; format: functional, cell-based
[2] = tested on: HCT-116; assay: Induction of cell cycle arrest in human HCT116 cells assessed as accumulation at G2/M phase at 0.005 to 0.5 uM after 24 hrs; format: functional, cell-based
[3] = molecular target: Serine/threonine-protein kinase PLK2 (Homo sapiens, UniProt Q9NYY3); assay: Inhibition of PLK2
[4] = molecular target: Serine/threonine-protein kinase PLK3 (Homo sapiens, UniProt Q9H4B4); assay: Inhibition of PLK3
[5] = Solubility of the compound at pH 7; format: physicochemical; details: buffer
[6] = Inhibition of casein kinase 2
[7] = molecular target: T1, Receptor-type tyrosine-protein kinase FLT3 (Homo sapiens, UniProt P36888); assay: Inhibition of FLT3
T1 sequence (P36888 whole entry): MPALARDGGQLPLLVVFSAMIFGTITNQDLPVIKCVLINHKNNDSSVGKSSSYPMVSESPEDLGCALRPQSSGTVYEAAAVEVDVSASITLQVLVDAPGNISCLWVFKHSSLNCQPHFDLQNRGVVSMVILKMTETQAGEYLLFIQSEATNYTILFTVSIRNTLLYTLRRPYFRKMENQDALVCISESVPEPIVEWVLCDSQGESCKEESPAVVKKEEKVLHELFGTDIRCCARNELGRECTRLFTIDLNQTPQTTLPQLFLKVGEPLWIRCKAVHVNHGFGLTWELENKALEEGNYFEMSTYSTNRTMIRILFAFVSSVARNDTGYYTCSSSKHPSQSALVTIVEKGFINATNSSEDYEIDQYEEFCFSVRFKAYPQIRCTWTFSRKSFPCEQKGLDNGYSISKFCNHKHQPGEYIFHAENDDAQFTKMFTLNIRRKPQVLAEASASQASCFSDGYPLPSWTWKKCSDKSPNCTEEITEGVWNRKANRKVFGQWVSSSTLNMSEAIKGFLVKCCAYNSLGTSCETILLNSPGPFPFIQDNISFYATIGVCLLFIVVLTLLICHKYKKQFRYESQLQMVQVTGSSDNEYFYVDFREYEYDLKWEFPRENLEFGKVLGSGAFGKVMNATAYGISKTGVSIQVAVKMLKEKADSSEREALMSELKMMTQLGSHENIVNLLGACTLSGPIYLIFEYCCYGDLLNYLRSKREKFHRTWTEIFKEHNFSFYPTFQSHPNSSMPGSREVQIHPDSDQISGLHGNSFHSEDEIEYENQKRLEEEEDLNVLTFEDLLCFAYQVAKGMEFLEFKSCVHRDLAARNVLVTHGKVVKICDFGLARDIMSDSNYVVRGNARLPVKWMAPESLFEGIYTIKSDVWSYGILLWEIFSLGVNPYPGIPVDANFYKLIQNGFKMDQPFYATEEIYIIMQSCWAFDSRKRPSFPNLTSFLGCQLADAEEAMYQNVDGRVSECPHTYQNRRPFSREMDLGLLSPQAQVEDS

[8] = molecular target: Serine/threonine-protein kinase Nek6 (Homo sapiens, UniProt Q9HC98); assay: Inhibition of NEK6
[9] = Inhibition of PDGFR
[10] = Permeability of the compound by PAMPA; format: ADME
[11] = Intrinsic clearance in human liver microsomes; format: ADME, Microsome
[12] = AUC (0 to infinity) in CD1 mouse at 10 mg/kg, iv administered as single dose by LC/MS/MS analysis; format: ADME, organism-based; design: time infinity, dose 10 mg/kg, route intravenous; details: plasma
[13] = Clearance in CD1 mouse at 10 mg/kg, iv administered as single dose by LC/MS/MS analysis; format: ADME, organism-based; design: dose 10 mg/kg, route intravenous; details: in vivo
[14] = Volume of distribution at steady state in CD1 mouse at 10 mg/kg, iv administered as single dose by LC/MS/MS analysis; format: ADME, organism-based; design: dose 10 mg/kg, route intravenous; details: in vivo, read-out: Vdss
[15] = tested on: HCT-116; assay: Antiproliferative activity against human HCT116 cells after 72 hrs by CellTiter-Glo assay; format: functional, cell-based; details: HCT-116, 72 h
[16] = tested on: PANC-1; assay: Antiproliferative activity against human PANC1 cells after 72 hrs by CellTiter-Glo assay; format: functional, cell-based; details: PANC-1, 72 h
[17] = Antiproliferative activity against human 1A9PTX22 cells after 72 hrs by CellTiter-Glo assay; format: functional, cell-based; details: 1A9/ptx-22, 72 h
[18] = tested on: A2780; assay: Antiproliferative activity against […] human A2780 cells after 72 hrs by CellTiter-Glo assay; format: functional, cell-based; details: A2780, 72 h
[19] = Antiproliferative activity against human A2780/E6 cells after 72 hrs by CellTiter-Glo assay; format: functional, cell-based; details: A2780/E6, 72 h
[20] = tested on: NCI-H1993; assay: Antiproliferative activity against human NCI-H1993 cells after 72 hrs by CellTiter-Glo assay; format: functional, cell-based; details: NCI-H1993, 72 h
[21] = Antiproliferative activity against human KU812 cells after 72 hrs by CellTiter-Glo assay; format: functional, cell-based; details: KU812, 72 h
[22] = Antiproliferative activity against human KMS11 cells after 72 hrs by CellTiter-Glo assay; format: functional, cell-based; details: KMS-11, 72 h
[23] = tested on: U2OS; assay: Induction of cell cycle arrest in human U2OS cells assessed as pSer46 TCTP signal inhibition of after 1 hr by array scan assay; format: functional, cell-based
[24] = tested on: A2780; assay: Antitumor against human A2780 cells xenografted in CD1 mouse assessed as tumor growth inhibition at 30 mg/kg, iv BID administered on day 1, 2, 3 post-implantation measured on day 12; format: functional; details: read-out: TGI
[25] = tested on: Mus musculus; assay: Toxicity in CD1 mouse xenografted with human A2780 cells assessed as reversible body weight loss at 30 mg/kg, iv BID administered on day 1, 2, 3 post-implantation measured on day 12; format: organism-based; design: dose 30 mg/kg, route intravenous; details: in vivo
[26] = tested on: A2780; assay: cells; details: Homo sapiens, A2780, 72 h
[27] = tested on: A2780; assay: Induction of apoptosis in human A2780 cells assessed as induction of PARP cleavage at 0.005 to 0.5 uM after 24 hrs
[28] = tested on: U2OS; assay: Induction of cell cycle arrest in human U2OS cells assessed as accumulation of cyclin B1-positive cells at 320 nM after 24 hrs by array scan assay
[29] = tested on: U2OS; assay: Induction of cell cycle arrest in human U2OS cells assessed as accumulation of pSer10 histone H3-positive cells at 260 nM after 24 hrs by array scan assay
[30] = tested on: HCT-116; assay: Antitumor against human HCT116 cells xenografted in CD1 mouse assessed as tumor growth inhibition at 60 mg/kg, po daily administered on day 1, 2, 3 post-implantation for 2 cycles; details: HCT-116, po, read-out: TGI
[31] = tested on: Mus musculus; assay: Toxicity in CD1 mouse xenografted with human HCT116 cells assessed as reversible body weight loss at 30 mg/kg, iv BID administered on day 1, 2 post-implantation in weekly schedule of 3 cycles measured on day 32; details: in vivo

Sequence of Serine/threonine-protein kinase PLK3 (Q9H4B4 whole entry): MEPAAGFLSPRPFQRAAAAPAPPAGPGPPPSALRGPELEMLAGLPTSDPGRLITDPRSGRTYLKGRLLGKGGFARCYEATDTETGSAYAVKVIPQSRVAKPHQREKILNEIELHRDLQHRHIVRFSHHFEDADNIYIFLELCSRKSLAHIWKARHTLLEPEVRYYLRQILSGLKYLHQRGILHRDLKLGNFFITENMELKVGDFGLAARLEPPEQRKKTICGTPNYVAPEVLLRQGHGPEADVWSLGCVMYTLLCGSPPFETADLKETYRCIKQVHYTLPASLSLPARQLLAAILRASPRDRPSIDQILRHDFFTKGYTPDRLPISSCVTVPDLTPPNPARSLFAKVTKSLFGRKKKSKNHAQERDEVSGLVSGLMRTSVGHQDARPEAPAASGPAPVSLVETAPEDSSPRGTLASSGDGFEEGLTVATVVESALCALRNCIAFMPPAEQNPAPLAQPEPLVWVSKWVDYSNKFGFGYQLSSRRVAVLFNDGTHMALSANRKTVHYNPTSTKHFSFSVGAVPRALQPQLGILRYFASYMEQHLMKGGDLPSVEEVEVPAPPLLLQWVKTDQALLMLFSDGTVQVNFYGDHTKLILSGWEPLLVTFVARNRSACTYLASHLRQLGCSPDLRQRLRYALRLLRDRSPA
Sequence of Serine/threonine-protein kinase Nek6 (Q9HC98 whole entry): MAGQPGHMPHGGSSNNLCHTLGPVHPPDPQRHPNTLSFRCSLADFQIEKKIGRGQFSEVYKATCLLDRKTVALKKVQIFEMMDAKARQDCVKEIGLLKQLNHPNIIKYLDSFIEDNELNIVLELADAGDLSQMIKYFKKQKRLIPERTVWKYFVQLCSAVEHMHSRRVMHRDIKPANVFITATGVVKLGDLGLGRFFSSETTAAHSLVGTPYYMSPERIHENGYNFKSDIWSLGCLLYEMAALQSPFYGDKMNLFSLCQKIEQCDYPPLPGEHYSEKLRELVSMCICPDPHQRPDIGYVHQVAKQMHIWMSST
Sequence of Serine/threonine-protein kinase PLK2 (Q9NYY3 whole entry): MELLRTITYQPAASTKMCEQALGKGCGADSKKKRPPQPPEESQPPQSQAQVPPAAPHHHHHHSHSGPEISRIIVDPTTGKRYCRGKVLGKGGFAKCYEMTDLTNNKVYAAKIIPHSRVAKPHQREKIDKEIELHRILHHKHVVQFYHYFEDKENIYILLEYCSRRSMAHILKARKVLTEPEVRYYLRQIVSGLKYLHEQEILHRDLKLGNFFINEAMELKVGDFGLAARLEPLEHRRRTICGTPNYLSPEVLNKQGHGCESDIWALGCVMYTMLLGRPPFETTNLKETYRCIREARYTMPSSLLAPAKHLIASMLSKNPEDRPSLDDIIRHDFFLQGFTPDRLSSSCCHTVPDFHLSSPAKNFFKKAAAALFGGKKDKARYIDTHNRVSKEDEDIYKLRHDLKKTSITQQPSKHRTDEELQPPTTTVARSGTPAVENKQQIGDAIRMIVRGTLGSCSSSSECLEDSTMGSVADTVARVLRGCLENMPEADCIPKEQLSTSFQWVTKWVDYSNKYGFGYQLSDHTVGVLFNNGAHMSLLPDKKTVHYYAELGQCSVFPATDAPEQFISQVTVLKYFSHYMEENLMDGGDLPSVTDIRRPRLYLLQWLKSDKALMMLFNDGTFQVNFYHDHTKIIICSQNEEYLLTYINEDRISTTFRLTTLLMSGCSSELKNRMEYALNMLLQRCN

IC50 [3]: 3.52 µM | IC50 [4]: 1.44 µM | solubility [5]: 72 µM (≈ 36.2 µg/mL) | IC50 [6]: 0.14 µM | IC50 [7]: 1.52 µM | IC50 [8]: 1.66 µM | IC50 [9]: > 10 µM | Papp [10]: 50 ×10⁻⁶ cm/s | CLint scaled [11]: 25.7 mL/min/kg | AUC(0-inf) [12]: 4.97 µM·h | clearance [13]: 70.2 mL/min/kg | Vd [14]: 3.39 L/kg | IC50 [15]: 0.041 µM | IC50 [16]: 0.126 µM | IC50 [18]: 0.021 µM | IC50 [20]: 0.195 µM | IC50 [23]: 0.095 µM | IC50 [26]: 0.021 µM
Structure (SMILES): CN1CCN(c2ccc(OC(F)(F)F)c(Nc3ncc4c(n3)-c3c(c(C(N)=O)nn3C)CC4)c2)CC1
Activity [1]: Active | Activity [2]: Active | IC50 [17]: 0.038 µM | IC50 [19]: 0.005 µM | IC50 [21]: 0.002 µM | IC50 [22]: 0.014 µM | inhibition in vivo at 30 mg/kg [24]: 74% | Activity [25]: 19% | Activity [27]: Active | Activity [28]: 20% | Activity [29]: 20% | inhibition in vivo at 60 mg/kg [30]: 70% | Activity [31]: 14%
